Active and inactive are the calls of the source. The calls are words filed in the database; no cut-off is given here.

Data set [1] in a line: Stability in SGF at pH 1.2 by HPLC analysis. The data set is classed as physicochemical. The note with it: simulated gi fluid.
The nature of data set [2]: Stability in SIF at pH 6.8 by HPLC analysis. The settings on record: simulated gi fluid. The class given is physicochemical.
The nature of data set [3]: Protein binding in mouse brain at 1 uM measured after 5 hrs by equilibrium dialysis method. The data set is classed as ADME, tissue-based. Background: In equilibrium dialysis free small molecules cross a membrane that holds back macromolecules.
Data set [4] is described as follows: Mutagenicity in Salmonella typhimurium TA98 incubated for 48 to 72 hrs in presence of liver S9 fraction by mini-Ames test. The class given is toxicity, subcellular. The note with it: salmonella enterica subsp. enterica serovar typhimurium, time 48-72 hrs.
Data set [5] in a line: Mutagenicity in Salmonella typhimurium TA100 incubated for 48 to 72 hrs in presence of liver S9 fraction by mini-Ames test. The class given is toxicity, subcellular. The note with it: salmonella enterica subsp. enterica serovar typhimurium, time 48-72 hrs. (In the Ames test, an excess of revertant colonies over the control signals mutagenicity.)
Data set [6] in a line: Toxicity in male C57Bl/6J mouse assessed as CNS-mediated hyperactivity at 1 to 10 mg/kg, po. The class given is organism-based. The note with it: in vivo, dose 1-10 mg/kg.
Data set [7] can be described thus: Toxicity in male C57Bl/6J mouse assessed as change in locomotor activity at 1 to 10 mg/kg, po. The class given is organism-based. The note with it: in vivo, dose 1-10 mg/kg.
In data set [8] the test system is Mus musculus. As to the kind of experiment: Inhibition of HU-210-induced hypoactivity in male C57Bl/6J mouse at 1 to 10 mg/kg, po. The settings on record: dose 1-10 mg/kg. The data set is classed as functional, organism-based.
The subject of data set [9] is Mus musculus. As to the kind of experiment: Anti-obese activity in diet-induced obese male C57Bl/6J mouse model assessed as decrease in body weight at 1 mg/kg/day, po treated for 24 days. The class given is functional, organism-based. The settings on record: time 24.0 day.
Data set [10] has as its system Mus musculus. As to the kind of experiment: Anti-obese activity in diet-induced obese male C57Bl/6J mouse model assessed as decrease in total body fat at 1 mg/kg/day, po treated for 24 days by EchoMRI analysis. The class given is functional, organism-based. The note with it: time 24.0 day.
The subject of data set [11] is Mus musculus. Nature of the data set: Anti-obese activity in diet-induced obese male C57Bl/6J mouse model assessed as increase in lean body mass at 1 mg/kg/day, po treated for 24 days by EchoMRI analysis. The class given is functional, organism-based. The settings on record: time 24.0 day.
For data set [12], the system named is Mus musculus. Nature of the data set: Anti-obese activity in diet-induced obese male C57Bl/6J mouse model assessed as reduction in glucose level in fasting condition at 1 mg/kg/day, po treated for 24 days. The data set is classed as functional, organism-based. The settings on record: time 24.0 day.
In data set [13] the test system is Mus musculus. As to the kind of experiment: Anti-obese activity in diet-induced obese male C57Bl/6J mouse model assessed as reduction in hypertriglyceridemia at 1 mg/kg/day, po treated for 24 days. The settings on record: time 24.0 day. The data set is classed as functional, organism-based.
In data set [14] the test system is Mus musculus. Nature of the data set: Anti-obese activity in diet-induced obese male C57Bl/6J mouse model assessed as reduction in hypercholesterolemia at 1 mg/kg/day, po treated for 24 days. The class given is functional, organism-based. The note with it: time 24.0 day.
For data set [15], the system named is Mus musculus. Nature of the data set: Anti-obese activity in diet-induced obese male C57Bl/6J mouse model assessed as reversal of hepatic steatosis at 1 mg/kg/day, po treated for 24 days by H and E staining based analysis. The class given is functional, organism-based. The note with it: time 24.0 day.
Data set [16] concerns Mus musculus. Nature of the data set: Anti-obese activity in diet-induced obese male C57Bl/6J mouse model assessed as reversal of hepatocellular damage at 1 mg/kg/day, po treated for 24 days by H and E staining based analysis. The data set is classed as functional, organism-based. The settings on record: time 24.0 day.
Data set [17] concerns Mus musculus. As to the kind of experiment: Anti-obese activity in diet-induced obese male C57Bl/6J mouse model assessed as reduction in liver triglyceride content at 1 mg/kg/day, po treated for 24 days. The class given is functional, organism-based. The note with it: time 24.0 day.
Data set [18] relates to Mus musculus. As to the kind of experiment: Anti-obese activity in diet-induced obese male C57Bl/6J mouse model assessed as reduction in ALT level at 1 mg/kg/day, po treated for 24 days. The data set is classed as functional, organism-based. The note with it: time 24.0 day.
The subject of data set [19] is Mus musculus. Nature of the data set: Anti-obese activity in diet-induced obese male C57Bl/6J mouse model assessed as reduction in AST level at 1 mg/kg/day, po treated for 24 days. The class given is functional, organism-based. The settings on record: time 24.0 day.
In data set [20] the test system is Mus musculus. As to the kind of experiment: Anti-obese activity in diet-induced obese male C57Bl/6J mouse model assessed as reduction in ALP level at 1 mg/kg/day, po treated for 24 days. The settings on record: time 24.0 day. The class given is functional, organism-based.
Data set [21] has as its target Cannabinoid receptor 1 (Mus musculus) (UniProt P47746). Nature of the data set: Antagonist activity at CB1R in C57Bl/6Jhsd mouse cortex membrane assessed as inhibition of [35S]GTPgammaS binding incubated for 1 hr by liquid scintillation counter analysis. The data set is classed as functional, cell membranes. The settings on record: filed as antagonist. On the technique in general: Binding of GTPγS marks nucleotide exchange on a G protein.

Data set [22] has the same target. As to the kind of experiment: Inverse agonist activity at CB1R in C57Bl/6Jhsd mouse cortex membrane assessed as inhibition of [35S]GTPgammaS binding incubated for 1 hr by liquid scintillation counter analysis. The class given is functional, cell membranes. The settings on record: filed as inverse agonist.
The subject of data set [23] is Mus musculus. Nature of the data set: Inhibition of WIN55212-induced catalepsy in male C57Bl/6J mouse at 10 mg/kg, po. The data set is classed as functional, organism-based.

Cannabinoid receptor 1 (Mus musculus), sequence (P47746 whole entry): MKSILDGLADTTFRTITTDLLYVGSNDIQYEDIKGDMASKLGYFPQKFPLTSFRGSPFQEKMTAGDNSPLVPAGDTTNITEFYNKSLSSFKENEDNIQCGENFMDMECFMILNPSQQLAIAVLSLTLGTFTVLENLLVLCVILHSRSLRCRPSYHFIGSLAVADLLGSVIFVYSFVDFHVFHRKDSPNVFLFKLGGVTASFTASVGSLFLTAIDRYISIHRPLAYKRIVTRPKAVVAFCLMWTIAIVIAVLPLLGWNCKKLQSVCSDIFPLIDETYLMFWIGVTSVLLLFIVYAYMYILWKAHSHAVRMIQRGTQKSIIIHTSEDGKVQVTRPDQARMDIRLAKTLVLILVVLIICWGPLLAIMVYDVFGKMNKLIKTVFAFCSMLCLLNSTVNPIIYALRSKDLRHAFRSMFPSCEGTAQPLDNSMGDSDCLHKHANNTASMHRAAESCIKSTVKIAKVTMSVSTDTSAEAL

On to `O=S(=O)(N[C@H]1CCCOc2c1nn(-c1ccccc1Cl)c2-c1ccc(Cl)cc1)c1ccc(Cl)cc1`, for which the Stability result in [1] and in [2] was “Stable” each time. In [3], the PB result was “Active”. For the same compound, the Activity result in data set [4] was “Non-toxic”; in data set [5], “Non-toxic”; in [6], “Non-toxic”; in data set [7], “Non-toxic”; in data set [21], “Active; Compound Exhibited As Neutral Antagonist”. For the same compound, in data set [8], the inhibition entry was “inactive”. Moreover, the result in [9], in [10], in data set [11], in [12], in data set [13] and in [14] was Active. In addition, the outcome in data set [15], in [16], in data set [17], in data set [18], in data set [19] and in [20] was Active.
Consider `CS(=O)(=O)N[C@H]1CCCOc2c1nn(-c1ccccc1Cl)c2-c1ccc(Cl)cc1`, for which the Activity entry in data set [21] is “Active; Compound Exhibited As Neutral Antagonist”.
Still for that read-out and setting: in the case of `CNC(=O)N[C@H]1CCCOc2c1nn(-c1ccccc1Cl)c2-c1ccc(Cl)cc1` it was “Active; Compound Exhibited As Neutral Antagonist”.
Consider `Cc1ccc(S(=O)(=O)N[C@H]2CCCOc3c2nn(-c2ccccc2Cl)c3-c2ccc(Cl)cc2)cc1`, for which the outcome in data set [22] was Active.
With `Cc1c(C(=O)NN2CCCCC2)nn(-c2ccc(Cl)cc2Cl)c1-c1ccc(Cl)cc1`, the inhibition entry in data set [23] was “Active”.
